Measurements taken from patent US10407395B2, “Benzimidazole compound and medical use thereof” (Sumitomo Dainippon Pharma Co., Ltd., priority 2015, dated 2019).

Biological target: human SCN9A (Nav 1.7) (Homo sapiens, UniProt Q15858)
Test: Measurement of Na ion current (Nav 1.7) by automated patch clamp assay in cells stably-expressing human SCN9A
Format: cell-based
Conditions: compound concentration 10 μmol/L; holding potential inactivating 50% Nav 1.7 channel (around −60 mV); read-out: Inhibitory rate (%) of Na ion current
Protocol: Measurement of Na Ion Current in Voltage-Dependent Na Channel Gene Expressed Cell Nav 1.7 current was measured by automated patch clamp assay using cells stably-expressing human SCN9A. Cells Stably-expressing Human SCN9A Tetracycline-induced cells stably-expressing SCN9A were obtained from ChanTest Corporation. […] Next day, the Na ion current was measured by automated patch clamp assay. Electrophysiologic Measurement of Na Ion Current The Na ion current was measured by automated patch clamp assay using the following extracellular solution and intracellular solution. […] The control of the stimulating pulse and the data acquisition were carried out using EPC10 amplifier and Patch Master Software (HEKA). Data were sampled at 10 kHz, and low-pass filtered at 3 kHz. All the measurements were carried out at room temperature. […] The inhibitory rate of the Na ion current by the test compounds was calculated according to the following calculating formula with the peak current value generated by the depolarizing pulse. […] The inhibitory rate of Na ion current by each Example Compound was evaluated.

human SCN9A (Nav 1.7), sequence (Q15858 whole entry): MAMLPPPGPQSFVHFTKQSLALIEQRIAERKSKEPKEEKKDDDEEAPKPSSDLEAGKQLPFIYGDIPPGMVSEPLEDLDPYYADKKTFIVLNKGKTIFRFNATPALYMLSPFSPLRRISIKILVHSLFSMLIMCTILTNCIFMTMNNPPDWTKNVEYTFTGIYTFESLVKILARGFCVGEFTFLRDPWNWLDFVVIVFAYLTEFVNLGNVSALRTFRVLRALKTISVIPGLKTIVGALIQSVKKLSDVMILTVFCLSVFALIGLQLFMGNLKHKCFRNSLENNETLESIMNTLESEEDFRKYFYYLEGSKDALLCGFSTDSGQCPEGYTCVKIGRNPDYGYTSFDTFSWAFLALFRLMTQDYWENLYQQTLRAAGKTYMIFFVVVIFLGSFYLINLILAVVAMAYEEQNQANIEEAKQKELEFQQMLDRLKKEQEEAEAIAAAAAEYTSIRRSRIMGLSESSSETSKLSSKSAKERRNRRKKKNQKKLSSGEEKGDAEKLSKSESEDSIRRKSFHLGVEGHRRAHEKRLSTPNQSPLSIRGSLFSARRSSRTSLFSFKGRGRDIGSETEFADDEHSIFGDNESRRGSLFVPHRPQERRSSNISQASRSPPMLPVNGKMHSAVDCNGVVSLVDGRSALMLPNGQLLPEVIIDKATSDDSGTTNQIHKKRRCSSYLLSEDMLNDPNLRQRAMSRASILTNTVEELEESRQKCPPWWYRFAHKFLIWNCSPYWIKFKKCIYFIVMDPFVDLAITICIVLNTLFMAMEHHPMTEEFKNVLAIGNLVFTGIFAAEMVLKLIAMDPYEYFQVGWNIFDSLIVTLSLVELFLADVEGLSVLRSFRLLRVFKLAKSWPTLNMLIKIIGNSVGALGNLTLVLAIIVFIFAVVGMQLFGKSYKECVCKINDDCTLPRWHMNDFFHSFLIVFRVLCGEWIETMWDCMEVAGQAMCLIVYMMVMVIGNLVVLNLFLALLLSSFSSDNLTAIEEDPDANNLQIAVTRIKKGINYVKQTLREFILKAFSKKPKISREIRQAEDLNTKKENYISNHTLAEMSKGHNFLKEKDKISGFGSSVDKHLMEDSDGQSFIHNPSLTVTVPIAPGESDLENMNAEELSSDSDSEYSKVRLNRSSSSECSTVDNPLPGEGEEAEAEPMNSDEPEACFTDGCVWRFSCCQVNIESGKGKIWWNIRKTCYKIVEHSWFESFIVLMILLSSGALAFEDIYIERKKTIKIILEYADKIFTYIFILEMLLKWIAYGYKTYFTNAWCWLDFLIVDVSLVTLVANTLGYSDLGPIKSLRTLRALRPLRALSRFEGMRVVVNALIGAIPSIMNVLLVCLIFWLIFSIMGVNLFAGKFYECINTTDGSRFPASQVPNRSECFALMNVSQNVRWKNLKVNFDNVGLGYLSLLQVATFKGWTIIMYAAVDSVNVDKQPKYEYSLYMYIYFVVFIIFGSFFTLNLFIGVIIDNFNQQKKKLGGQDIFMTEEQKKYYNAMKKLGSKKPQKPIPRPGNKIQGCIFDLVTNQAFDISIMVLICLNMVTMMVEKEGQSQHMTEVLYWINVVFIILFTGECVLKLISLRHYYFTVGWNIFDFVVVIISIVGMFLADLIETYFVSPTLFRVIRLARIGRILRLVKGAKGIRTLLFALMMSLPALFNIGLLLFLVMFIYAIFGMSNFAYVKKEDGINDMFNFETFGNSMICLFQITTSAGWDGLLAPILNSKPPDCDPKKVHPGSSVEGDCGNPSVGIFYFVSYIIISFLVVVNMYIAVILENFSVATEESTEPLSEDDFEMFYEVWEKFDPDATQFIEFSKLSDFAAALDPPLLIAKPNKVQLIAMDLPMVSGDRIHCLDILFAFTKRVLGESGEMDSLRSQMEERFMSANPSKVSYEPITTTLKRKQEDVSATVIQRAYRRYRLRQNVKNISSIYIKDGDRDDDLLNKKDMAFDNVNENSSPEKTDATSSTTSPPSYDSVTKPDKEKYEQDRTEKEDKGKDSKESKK

Row | SMILES | inhibition at 10 µM
1 | OC1(Cn2cnc3ccc(Oc4ccc(Cl)cc4Cl)cc32)COC1 [Example 106] | 50%
2 | OC1(Cn2cnc3ccc(Oc4ccc(Cl)c(Cl)c4)cc32)COC1 [Example 107] | 51%
3 | OC1(Cn2cnc3ccc(Oc4ccc(Cl)cc4F)cc32)COC1 [Example 109] | 30%
4 | OC1(Cn2cnc3ccc(Oc4ccc(F)cc4Cl)cc32)COC1 [Example 110, 3-{[6-(2-chloro-4-fluorophenoxy)-1H-benzimidazol-1-yl]methyl}oxetan-3-ol] | 58%
5 | OC1(Cn2cnc3ccc(Oc4cc(Cl)cc(Cl)c4)cc32)COC1 [Example 111] | 52%
6 | OC1(Cn2cnc3ccc(Oc4cc(Cl)ccc4Cl)cc32)COC1 [Example 112] | 39%
7 | C[C@]1(O)C[C@@H](n2cnc3ccc(Oc4ccc(C(F)(F)F)cc4)cc32)C1 [Example 113] | 68%
8 | OC1(Cn2cnc3ccc(Oc4ccc5scnc5c4)cc32)COC1 [Example 114] | 26%
9 | OC1(Cn2cnc3ccc(Oc4ccc5ncccc5c4)cc32)COC1 [Example 115] | 31%
10 | CC(C)(CO)n1cnc2ccc(Oc3ccc(C(F)(F)F)cn3)cc21 [Example 116] | 33%
11 | OC1(Cn2cnc3ccc(Oc4ccc(C(F)(F)F)cn4)cc32)CCCC1 [Example 119] | 36%
12 | CC(C)(O)Cn1cnc2ccc(Oc3ccc(OC(F)(F)F)cn3)cc21 [Example 120] | 13%
13 | C[C@]1(O)C[C@@H](n2cnc3ccc(Oc4ccc(OC(F)(F)F)cn4)cc32)C1 [Example 121] | 21%
14 | CC(C)(O)Cn1cnc2ccc(-c3ccc(C(F)(F)F)nc3)cc21 [Example 122] | 14%
15 | COc1cc(C(F)(F)F)ccc1-c1ccc2ncn(CC(C)(C)O)c2c1 [Example 124] | 61%
16 | COc1ccc(-c2ccc3ncn(CC(C)(C)O)c3c2)cn1 [Example 125] | 13%
17 | COc1cc(F)ccc1-c1ccc2ncn(CC(C)(C)O)c2c1 [Example 128] | 24%
18 | Cc1cc(Cl)ccc1-c1ccc2ncn(CC(C)(C)O)c2c1 [Example 129] | 51%
19 | CC(C)(O)Cn1cnc2ccc(-c3ccc(Cl)cc3F)cc21 [Example 130, 1-[6-(4-chloro-2-fluorophenyl)-1H-benzimidazol-1-yl]-2-methylpropan-2-ol] | 48%
20 | CC(C)(O)Cn1cnc2ccc(-c3ccc(Cl)cc3C(F)(F)F)cc21 [Example 131] | 62%
21 | CC(C)(O)Cn1cnc2ccc(-c3ccc(Cl)cc3Cl)cc21 [Example 132] | 65%
22 | CC(C)(O)Cn1cnc2ccc(-c3cccc(Cl)c3F)cc21 [Example 133] | 60%
23 | CC(C)(O)Cn1cnc2ccc(-c3ccc(F)c(Cl)c3)cc21 [Example 134] | 50%
24 | CC(C)(O)Cn1cnc2ccc(-c3ccc(S(C)(=O)=O)cc3F)cc21 [Example 135] | 29%
25 | CC(C)(O)Cn1cnc2ccc(-c3ccc(C(F)(F)F)cc3Cl)cc21 [Example 136] | 70%
26 | CC(C)(O)Cn1cnc2ccc(-c3cccc(C(F)(F)F)c3)cc21 [Example 137] | 38%
27 | CC(C)(O)Cn1cnc2ccc(-c3ccccc3Cl)cc21 [Example 138] | 34%
28 | CC(C)(O)Cn1cnc2ccc(-c3cccc(Cl)c3)cc21 [Example 139] | 35%
29 | CC(C)(O)Cn1cnc2ccc(-c3ccccc3OC(F)(F)F)cc21 [Example 140] | 24%
30 | CC(C)(O)Cn1cnc2ccc(-c3cccc(OC(F)(F)F)c3)cc21 [Example 141] | 53%

Same assay, conditions: compound concentration 100 μmol/L (footnoted examples); holding potential inactivating 50% Nav 1.7 channel (around −60 mV); read-out: Inhibitory rate (%) of Na ion current

Row | SMILES | inhibition at 100 µM
31 | O[C@H]1CC[C@H](n2cnc3ccc(Oc4ccc(C(F)(F)F)cn4)cc32)CC1 [Example 117] | 44%
32 | Cc1ccc(-c2ccc3ncn(CC(C)(C)O)c3c2)cn1 [Example 126] | 7%
33 | CC(C)(O)Cn1cnc2ccc(-c3ccc(N4CCOCC4)nc3)cc21 [Example 127] | 16%
